In US9029544B2, “Tricyclic pyridine derivatives, medicaments containing such compounds, their use and process for their preparation” (Boehringer Ingelheim International GmbH, priority 2010, dated 2015):

Target: T1, Recombinant human CETP (Homo sapiens, UniProt P11597)
T1 construct: made in house; host or cells: CHO cells (secreted into conditioned medium)
T1 sequence (P11597 18-493): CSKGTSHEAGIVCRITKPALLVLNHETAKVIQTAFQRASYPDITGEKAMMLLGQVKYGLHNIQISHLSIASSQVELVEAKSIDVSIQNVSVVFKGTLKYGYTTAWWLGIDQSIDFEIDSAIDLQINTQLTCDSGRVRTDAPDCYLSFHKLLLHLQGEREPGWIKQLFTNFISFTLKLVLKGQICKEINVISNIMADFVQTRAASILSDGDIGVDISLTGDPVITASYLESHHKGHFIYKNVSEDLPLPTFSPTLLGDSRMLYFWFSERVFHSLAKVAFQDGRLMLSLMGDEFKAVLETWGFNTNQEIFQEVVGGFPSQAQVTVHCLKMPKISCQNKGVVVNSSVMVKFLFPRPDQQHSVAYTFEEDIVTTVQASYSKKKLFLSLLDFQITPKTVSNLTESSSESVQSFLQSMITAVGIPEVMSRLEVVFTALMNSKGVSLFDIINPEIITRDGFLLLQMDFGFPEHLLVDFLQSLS
Experiment: CETP in vitro assay (fluorometric assay, Roar Biomedical; cholesterol ester transfer from HDL to LDL)
Assay type: biochemical
Settings: recombinant human CETP from CHO cells; 3 hours at 37° C.; fluorescence 485/535 nm; compound concentrations between 1 nM and 30 μM; read-out: IC50 values for inhibition of CETP
Method: CETP inhibitory activity of compounds of the present invention can be determined in a fluorometric assay purchased from Roar Biomedical, Inc. (New York, N.Y., USA). […] Recombinant human CETP was partially purified from medium conditioned by CETP expressing CHO cells. In a 384 well format 2.5 μl of compound solution in DMSO was combined with 2 μl of donor solution, 2 μl of acceptor solution and 0.8 μl of recombinant human CETP solution in a total volume of 100 μl with assay buffer and incubated for 3 hours at 37° C. The fluorescence intensity was measured at excitation wavelength of 485 nm and emission wavelength of 535 nm. IC50 values are calculated from dose effect curves from compound concentrations between 1 nM and 30 μM.

Row | SMILES | IC50 [nM]
1 | CC(C)c1nc2c(c3c1[C@@H](c1ccc(C(F)(F)F)c(C#N)c1)OC31CCOCC1)[C@@H](O)CC(C)(C)C2 [1(66), 5-((3R,9S)-9-hydroxy-4-isopropyl-7,7-dimethyl-2′,3′,5′,6,6′,7,8,9-octahydro-3H-spiro[furo[3,4-c]quinoline-1,4′-pyran]-3-yl)-2-(trifluoromethyl)benzonitrile] | 34
2 | CC(C)c1nc2c(c3c1[C@@H](c1ccc(C(F)(F)F)cn1)OC31CCOCC1)[C@@H](O)CC(C)(C)C2 [1(67), (3S,9S)-4-isopropyl-7,7-dimethyl-3-(5-(trifluoromethyl)pyridin-2-yl)-2′,3′,5′,6,6′,7,8,9-octahydro-3H-spiro[furo[3,4-c]quinoline-1,4′-pyran]-9-ol] | 161
3 | CC(C)c1nc2c(c3c1[C@@H](c1ccc(S(F)(F)(F)(F)F)cc1)OC31CCOCC1)[C@@H](O)CC(C)(C)C2 [1(68), (3R,9S)-4-isopropyl-7,7-dimethyl-3-(4-(pentafluorosulfanyl)phenyl)-2′,3′,5′,6,6′,7,8,9-octahydro-3H-spiro[furo[3,4-c]quinoline-1,4′-pyran]-9-ol] | 24
4 | CC(C)c1nc2c(c3c1[C@@H](c1ccc(S(F)(F)(F)(F)F)cc1)OC31CCOCC1)[C@@H](O)CC1(CCC1)C2 [1(69), (3R,9S)-4-isopropyl-7,7-(propan-1,3-diyl)-3-(4-(pentafluorosulfanyl)phenyl)-2′,3′,5′,6,6′,7,8,9-octahydro-3H-spiro[furo[3,4-c]quinoline-1,4′-pyran]-9-ol] | 14
5 | CC1(C)Cc2nc(C3CCOCC3)c3c(c2[C@@H](O)C1)C1(CCOCC1)O[C@@H]3c1ccc(C(C)(C)C)cc1 [1(70), (3R,9S)-3-(4-tert-butylphenyl)-7,7-dimethyl-4-(tetrahydro-2H-pyran-4-yl)-2′,3′,5′,6,6′,7,8,9-octahydro-3H-spiro[furo[3,4-c]quinoline-1,4′-pyran]-9-ol] | 57
6 | CC(C)c1nc2c(c3c1[C@@H](c1ccc(S(F)(F)(F)(F)F)cc1)OC31CCCC1)[C@@H](O)CC(C)(C)C2 [1(71), (3′R,9′S)-4′-isopropyl-7′,7′-dimethyl-3′-(4-(pentafluorosulfanyl)phenyl)-6′,7′,8′,9′-tetrahydro-3′H-spiro[cyclopentane-1,1′-furo[3,4-c]quinolin]-9′-ol] | 31
7 | N#Cc1cc([C@H]2OC3(CCOCC3)c3c2c(C2CCOCC2)nc2c3[C@@H](O)CC3(CCC3)C2)ccc1C(F)(F)F [1(72), 5-((3R,9S)-9-hydroxy-7,7-(propan-1,3-diyl)-4-(tetrahydro-2H-pyran-4-yl)-2′,3′,5′,6,6′,7,8,9-octahydro-3H-spiro[furo[3,4-c]quinoline-1,4′-pyran]-3-yl)-2-(trifluoromethyl)benzonitrile] | 39
8 | CC1(C)Cc2nc(C3CCOCC3)c3c(c2[C@@H](O)C1)C1(CCOCC1)O[C@@H]3c1ccc(C(F)(F)F)cn1 [1(73), (3S,9S)-7,7-dimethyl-4-(tetrahydro-2H-pyran-4-yl)-3-(5-(trifluoromethyl)pyridin-2-yl)-2′,3′,5′,6,6′,7,8,9-octahydro-3H-spiro[furo[3,4-c]quinoline-1,4′-pyran]-9-ol] | 1700
9 | CC1(C)Cc2nc(C3CCOCC3)c3c(c2[C@@H](O)C1)C1(CCOCC1)O[C@@H]3c1ccc(C(F)(F)F)c(C#N)c1 [1(74), 5-((3R,9S)-9-hydroxy-7,7-dimethyl-4-(tetrahydro-2H-pyran-4-yl)-2′,3′,5′,6,6′,7,8,9-octahydro-3H-spiro[furo[3,4-c]quinoline-1,4′-pyran]-3-yl)-2-(trifluoromethyl)benzonitrile] | 100
10 | O[C@H]1CC2(CCC2)Cc2nc(C3CCOCC3)c3c(c21)C1(CCOCC1)O[C@@H]3c1ccc(C(F)(F)F)cn1 [1(75), (3S,9S)-7,7-(propan-1,3-diyl)-4-(tetrahydro-2H-pyran-4-yl)-3-(5-(trifluoromethyl)pyridin-2-yl)-2′,3′,5′,6,6′,7,8,9-octahydro-3H-spiro[furo[3,4-c]quinoline-1,4′-pyran]-9-ol] | 288
11 | CC1(C)Cc2nc(C3CCOCC3)c3c(c2[C@@H](O)C1)C1(CCOCC1)O[C@@H]3c1ccc(C(F)(F)F)nc1 [1(76), (3R,9S)-7,7-dimethyl-4-(tetrahydro-2H-pyran-4-yl)-3-(6-(trifluoromethyl)pyridin-3-yl)-2′,3′,5′,6,6′,7,8,9-octahydro-3H-spiro[furo[3,4-c]quinoline-1,4′-pyran]-9-ol] | 886
12 | O[C@H]1CC2(CCC2)Cc2nc(C3CCOCC3)c3c(c21)C1(CCOCC1)O[C@@H]3c1ccc(C(F)(F)F)cc1 [1(77), (3R,9S)-7,7-(propan-1,3-diyl)-4-(tetrahydro-2H-pyran-4-yl)-3-(4-(trifluoromethyl)phenyl)-2′,3′,5′,6,6′,7,8,9-octahydro-3H-spiro[furo[3,4-c]quinoline-1,4′-pyran]-9-ol] | 39
13 | O[C@H]1CC2(CCC2)Cc2nc(C3CCOCC3)c3c(c21)C1(CCOCC1)O[C@@H]3c1ccc(C(F)(F)F)nc1 [1(78), (3R,9S)-7,7-(propan-1,3-diyl)-4-(tetrahydro-2H-pyran-4-yl)-3-(6-(trifluoromethyl)pyridin-3-yl)-2′,3′,5′,6,6′,7,8,9-octahydro-3H-spiro[furo[3,4-c]quinoline-1,4′-pyran]-9-ol] | 362
14 | CC(C)c1nc2c(c3c1[C@@H](c1ccc(C(F)(F)F)c(C#N)c1)OC31CCOCC1)[C@@H](O)CC1(CCC1)C2 [1(79), 5-((3R,9S)-9-hydroxy-4-isopropyl-7,7-(propan-1,3-diyl)-2′,3′,5′,6,6′,7,8,9-octahydro-3H-spiro[furo[3,4-c]quinoline-1,4′-pyran]-3-yl)-2-(trifluoromethyl)benzonitrile] | 18
15 | CC1(C)Cc2nc(C(C)(C)C)c3c(c2[C@@H](O)C1)C1(CCOCC1)O[C@@H]3c1ccc(C(F)(F)F)cc1 [1(80), (3R,9S)-4-tert-butyl-7,7-dimethyl-3-(4-(trifluoromethyl)phenyl)-2′,3′,5′,6,6′,7,8,9-octahydro-3H-spiro[furo[3,4-c]quinoline-1,4′-pyran]-9-ol] | 47
16 | COC(C)c1nc2c(c3c1[C@@H](c1ccc(C(F)(F)F)cc1)OC31CCOCC1)[C@@H](O)CC(C)(C)C2 (stereo partly drawn) [1(81), (3R,9S)-4-(1-methoxyethyl)-7,7-dimethyl-3-(4-(trifluoromethyl)phenyl)-2′,3′,5′,6,6′,7,8,9-octahydro-3H-spiro[furo[3,4-c]quinoline-1,4′-pyran]-9-ol] | 108
17 | COCc1nc2c(c3c1[C@@H](c1ccc(C(F)(F)F)cc1)OC31CCOCC1)[C@@H](O)CC(C)(C)C2 [1(82), (3R,9S)-4-(methoxymethyl)-7,7-dimethyl-3-(4-(trifluoromethyl)phenyl)-2′,3′,5′,6,6′,7,8,9-octahydro-3H-spiro[furo[3,4-c]quinoline-1,4′-pyran]-9-ol] | 786
18 | COC(C)(C)c1nc2c(c3c1[C@@H](c1ccc(C(F)(F)F)cc1)OC31CCOCC1)[C@@H](O)CC(C)(C)C2 [1(83), (3R,9S)-4-(2-methoxypropan-2-yl)-7,7-dimethyl-3-(4-(trifluoromethyl)phenyl)-2′,3′,5′,6,6′,7,8,9-octahydro-3H-spiro[furo[3,4-c]quinoline-1,4′-pyran]-9-ol] | 25
19 | CC(C)c1nc2c(c3c1[C@@H](c1ccc(C(F)(F)F)nc1)OC31CCCC1)[C@@H](O)CC(C)(C)[C@H]2O [4(1), (3′R,6′R,9′S)-4′-isopropyl-7′,7′-dimethyl-3′-(6-(trifluoromethyl)pyridin-3-yl)-6′,7′,8′,9′-tetrahydro-3′H-spiro[cyclopentane-1,1′-furo[3,4-c]quinoline]-6′,9′-diol] | 127
20 | CC(C)c1nc2c(c3c1[C@@H](c1ccc(C(F)(F)F)cc1)OC31CCOCC1)[C@@H](O)CC(C)(C)[C@H]2O [4(2), (3R,6R,9S)-4-isopropyl-7,7-dimethyl-3-(4-(trifluoromethyl)phenyl)-2′,3′,5′,6,6′,7,8,9-octahydro-3H-spiro[furo[3,4-c]quinoline-1,4′-pyran]-6,9-diol] | 25
21 | CC(C)c1nc2c(c3c1[C@@H](c1ccc(C(C)(C)C)cc1)OC31CCCC1)[C@@H](O)CC(C)(C)[C@H]2O [4(3), (3′R,6′R,9′S)-3′-(4-tert-butylphenyl)-4′-isopropyl-7′,7′-dimethyl-6′,7′,8′,9′-tetrahydro-3′H-spiro[cyclopentane-1,1′-furo[3,4-c]quinoline]-6′,9′-diol] | 21
22 | CC(C)c1nc2c(c3c1[C@@H](c1ccc(C(C)(C)C)cc1)OC31CCCC1)[C@@H](O)CC(C)(C)[C@@H]2O [4(4), (3′R,6′S,9′S)-3′-(4-tert-butylphenyl)-4′-isopropyl-7′,7′-dimethyl-6′,7′,8′,9′-tetrahydro-3′H-spiro[cyclopentane-1,1′-furo[3,4-c]quinoline]-6′,9′-diol] | 207
23 | CC(C)c1nc2c(c3c1[C@@H](c1ccc(C(F)(F)F)cc1F)OC31CCOCC1)[C@@H](O)CC(C)(C)[C@H]2O [4(5), (3S,6R,9S)-3-(2-fluoro-4-(trifluoromethyl)phenyl)-4-isopropyl-7,7-dimethyl-2′,3′,5′,6,6′,7,8,9-octahydro-3H-spiro[furo[3,4-c]quinoline-1,4′-pyran]-6,9-diol] | 15
